What was measured:
Acetylcholinesterase [1] = biological target: Acetylcholinesterase (Electrophorus electricus, UniProt O42275); assay: Inhibition of electric eel AChE using acetylthiocholine iodide as substrate incubated for 15 mins by Ellman's method
in vitro = conditions: PAMPA
[2] = Lipophilicity, log P of the compound; format: physicochemical; conditions: octanol/water
Acetylcholinesterase [3] = biological target: Acetylcholinesterase (Homo sapiens, UniProt P22303)
Description: Inhibition of AChE (unknown origin)

physchem = conditions: octanol/water
Description: Lipophilicity, log D of compound

Chain of Acetylcholinesterase (Electrophorus electricus, UniProt O42275) (O42275 whole entry): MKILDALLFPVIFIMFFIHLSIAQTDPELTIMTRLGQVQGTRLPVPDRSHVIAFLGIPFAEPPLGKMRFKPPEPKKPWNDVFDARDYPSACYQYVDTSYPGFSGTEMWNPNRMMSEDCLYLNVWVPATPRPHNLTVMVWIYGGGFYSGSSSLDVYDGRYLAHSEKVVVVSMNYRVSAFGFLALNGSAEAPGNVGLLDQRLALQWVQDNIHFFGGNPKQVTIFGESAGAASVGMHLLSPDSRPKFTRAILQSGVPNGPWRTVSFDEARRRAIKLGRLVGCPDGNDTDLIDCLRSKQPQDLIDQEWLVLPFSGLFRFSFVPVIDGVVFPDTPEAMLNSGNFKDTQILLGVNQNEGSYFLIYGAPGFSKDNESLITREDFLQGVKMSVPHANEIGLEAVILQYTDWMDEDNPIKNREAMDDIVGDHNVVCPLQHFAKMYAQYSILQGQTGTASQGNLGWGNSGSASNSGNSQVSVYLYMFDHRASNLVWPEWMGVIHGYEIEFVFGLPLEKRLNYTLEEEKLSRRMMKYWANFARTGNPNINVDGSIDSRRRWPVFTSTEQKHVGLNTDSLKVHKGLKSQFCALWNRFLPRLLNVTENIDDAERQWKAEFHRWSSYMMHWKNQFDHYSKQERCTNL
Chain of Acetylcholinesterase (Homo sapiens, UniProt P22303) (P22303 whole entry): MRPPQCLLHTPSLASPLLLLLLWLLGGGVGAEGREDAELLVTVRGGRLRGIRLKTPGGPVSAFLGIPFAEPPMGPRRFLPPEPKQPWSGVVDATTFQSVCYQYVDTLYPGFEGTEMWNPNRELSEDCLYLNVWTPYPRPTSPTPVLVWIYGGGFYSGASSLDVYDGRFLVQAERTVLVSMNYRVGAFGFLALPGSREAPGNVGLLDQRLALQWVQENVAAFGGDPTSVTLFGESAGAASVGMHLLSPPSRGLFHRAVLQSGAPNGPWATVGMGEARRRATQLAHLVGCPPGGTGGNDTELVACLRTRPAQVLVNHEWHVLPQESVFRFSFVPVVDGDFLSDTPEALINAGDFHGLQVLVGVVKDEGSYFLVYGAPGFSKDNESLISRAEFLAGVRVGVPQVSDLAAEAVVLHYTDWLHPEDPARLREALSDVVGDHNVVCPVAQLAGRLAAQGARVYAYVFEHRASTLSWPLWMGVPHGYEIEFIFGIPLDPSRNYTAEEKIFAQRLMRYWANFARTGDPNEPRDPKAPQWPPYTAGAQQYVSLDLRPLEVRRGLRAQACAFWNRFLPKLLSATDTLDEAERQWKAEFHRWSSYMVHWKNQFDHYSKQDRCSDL

Compound | IC50 (Acetylcholinesterase [1]) | Papp at 8 h (in vitro) | other results
COc1cc2c(cc1OC)C(=O)C(CC1CCN(Cc3ccc(N)cc3)CC1)C2 (centres undefined) | 0.0991 µM |  | 
O=C(c1ccccc1)N1CCC(CCN2C(=O)c3ccccc3C2=O)CC1 | 63 µM |  | 
NCc1cccc(CN2CCC(CCN3C(=O)c4ccccc4C3=O)CC2)c1 | 0.299 µM | 1.4 ×10⁻⁶ cm/s | 
Clc1cccc(Cl)c1N=C1NCCN1 [CLONIDINE] |  | 12.2 ×10⁻⁶ cm/s | 
COc1cc2c(cc1OC)C(=O)C(CC1CCN(Cc3cccc(N)c3)CC1)C2 (centres undefined) | 0.0473 µM | 3.7 ×10⁻⁶ cm/s | 
O=C1c2ccccc2C(=O)N1CC1CCN(Cc2ccccc2)CC1 | 22.8 µM | 10.7 ×10⁻⁶ cm/s | 
Nc1ccc(CN2CCC(CCN3C(=O)c4ccccc4C3=O)CC2)cc1 | 0.327 µM |  | 
COc1cc2c(cc1OC)C(=O)C(CC1CCN(CCCCN)CC1)C2 (centres undefined) | 14.6 µM |  | 
COc1cc2c(cc1OC)C(=O)C(CC1CCNCC1)C2 (centres undefined) | 9.45 µM |  | 
NCCc1ccc(O)c(O)c1 [DOPAMINE] |  | 3.3 ×10⁻⁶ cm/s | 
O=C1c2ccccc2C(=O)N1CCC1CCN(Cc2ccccc2)CC1 | 0.0132 µM |  | 
Nc1ccc(CN2CCC(CN3C(=O)c4ccccc4C3=O)CC2)cc1 | 25.2 µM |  | 
Nc1cccc(CN2CCC(CCN3C(=O)c4ccccc4C3=O)CC2)c1 | 0.15 µM | 2.9 ×10⁻⁶ cm/s | 
NCc1ccc(CN2CCC(CCN3C(=O)c4ccccc4C3=O)CC2)cc1 | 1.54 µM |  | 
COc1cc2c(cc1OC)C(=O)C(CC1CCN(Cc3ccc(CN)cc3)CC1)C2 (centres undefined) | 5.8 µM |  | 
COc1cc2c(cc1OC)C(=O)C(CC1CCN(Cc3cccc(CN)c3)CC1)C2 (centres undefined) | 1.03 µM | 1.5 ×10⁻⁶ cm/s | 
COc1cc2c(cc1OC)C(=O)C(CC1CCN(C(=O)c3ccccc3)CC1)C2 (centres undefined) | 17.9 µM |  | 
COc1cc2c(cc1OC)C(=O)C(CC1CCN(CCN)CC1)C2 (centres undefined) | 11.2 µM |  | 
COc1cc2c(cc1OC)C(=O)C(CC1CCN(CCCN)CC1)C2 (centres undefined) | 10.8 µM |  | 
COc1cc2c(cc1OC)C(=O)C(CC1CCN(Cc3cccc(NC(=O)c4ccccc4)c3)CC1)C2 (centres undefined) | 22.8 µM |  | 
COc1cc(O)c(C(=O)Nc2nc(C(=O)NCCN(C(C)C)C(C)C)cs2)cc1OC [ACOTIAMIDE] |  |  | logP [2]: < 2; IC50 (Acetylcholinesterase [3]): 3 µM; logD (physchem): 0.7
COc1cc2c(cc1OC)C(=O)C(CC1CCN(Cc3ccc(C(=O)O)cc3)CC1)C2 (centres undefined) | 72.2 µM |  | 
